Where “and” joins values, the source holds several entries; their conditions need not be identical. Identical values can stand only once.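 Growth conditions: 96-well plates. Treatment: test compound, 48 hours, 5 concentrations. Analysis: linear interpolation between bracketing concentrations; unreached endpoints set to highest concentration. The concentration for 50% growth inhibition is given as GI50.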 Calls of active or inactive are those of the source. No stated cut-off is given here; in the data, active = GI50 up to about 1.1 µM and inactive = higher.
Columns and labels:
Experiment in all cases: NCI tumour cell line growth inhibition, 48 h
HT-29 = tested on: HT-29
SK-MEL-28 = tested on: SK-MEL-28
CCRF-CEM = tested on: CCRF-CEM
A498 = tested on: A498
MDA-N = tested on: MDA-N
EKVX = tested on: EKVX
UO-31 = tested on: UO-31
RPMI-8226 = tested on: RPMI-8226
K562 = tested on: K562
HCT-116 = tested on: HCT-116
SK-OV-3 = tested on: SK-OV-3
NCI-H460 = tested on: NCI-H460
SF-539 = tested on: SF-539
MDA-MB-231 = tested on: MDA-MB-231
SNB-19 = tested on: SNB-19
HOP-62 = tested on: HOP-62
SR = tested on: SR

SMILES | GI50 (HT-29) | GI50 (SK-MEL-28) | GI50 (CCRF-CEM) | GI50 (A498) | GI50 (MDA-N) | GI50 (EKVX) | GI50 (UO-31) | GI50 (RPMI-8226) | GI50 (K562) | GI50 (HCT-116) | GI50 (SK-OV-3) | GI50 (NCI-H460) | GI50 (SF-539) | GI50 (MDA-MB-231) | GI50 (SNB-19) | GI50 (HOP-62) | GI50 (SR)
O=[N+]([O-])/C(Cl)=C(\NCCO)C(Cl)=C(Cl)Cl | 57 µM (inactive) | > 85.7 µM (inactive) | 16.9 µM (inactive) | > 100 µM (inactive) | 55.5 µM (inactive) | > 100 µM (inactive) | > 74.5 µM (inactive) | 16.1 µM (inactive) | 8.2 µM (inactive) | 45.2 µM (inactive) | > 100 µM (inactive) | > 100 µM (inactive) | > 100 µM (inactive) | > 64.9 µM (inactive) | > 100 µM (inactive) | > 100 µM (inactive) | 20.5 µM (inactive)
COc1ccc(/C=C2/N/C(=N\N=C/C(O)C(O)C(O)C(O)CO)NC2=O)cc1 (centres undefined) | > 100 µM (inactive) | > 100 µM (inactive) | 53.8 µM (inactive) | > 100 µM (inactive) | > 100 µM (inactive) | > 100 µM (inactive) | > 100 µM (inactive) | > 100 µM (inactive) | 53.8 µM (inactive) and 78 µM (inactive) | > 100 µM (inactive) | > 100 µM (inactive) | > 100 µM (inactive) | > 100 µM (inactive) | > 100 µM (inactive) | > 100 µM (inactive) | > 100 µM (inactive) | > 100 µM (inactive)
O=C1NC(c2cccc(OCc3ccccc3)c2)Nc2ccccc21 (centres undefined) | 0.12 µM (active) | 0.309 µM (active) | 0.0479 µM (active) | 0.259 µM (active) | 0.0187 µM (active) | 0.339 µM (active) | 4.55 µM (inactive) | 0.0416 µM (active) | 0.0189 µM (active) | 0.0465 µM (active) | 0.307 µM (active) | 0.208 µM (active) | 0.201 µM (active) | 0.251 µM (active) | 0.324 µM (active) | 0.359 µM (active) | < 0.0298 µM (active)
C/C(=N/NC(=S)Nc1cccc(Cl)c1)c1cccc(/C(C)=N\NC(=S)Nc2cccc(Cl)c2)n1 | 2.27 µM (inactive) | > 100 µM (inactive) | 1.28 µM (inactive) | 4.85 µM (inactive) | 20.2 µM (inactive) | 3.44 µM (inactive) | 1.67 µM (inactive) | 3.05 µM (inactive) | 2.62 µM (inactive) | 2.4 µM (inactive) | 4.22 µM (inactive) | 2.01 µM (inactive) | 0.597 µM (active) | 2.69 µM (inactive) | 19.4 µM (inactive) | 1.15 µM (inactive) | 0.828 µM (active)
CC(=O)OC12c3ccccc3-c3ccccc3C1C1C(=O)N(C)C(=O)C12Cl (centres undefined) | > 10 µM (inactive) | > 10 µM (inactive) | > 10 µM (inactive) | > 10 µM (inactive) | > 10 µM (inactive) | > 10 µM (inactive) | > 10 µM (inactive) | > 10 µM (inactive) | > 10 µM (inactive) |  | > 10 µM (inactive) | > 10 µM (inactive) | > 10 µM (inactive) | > 10 µM (inactive) | > 10 µM (inactive) | > 10 µM (inactive) | > 10 µM (inactive)
CC(=O)C1(O)CCC2(O)C3(O)CC=C4CC(O)CCC4(C)C3CC(OC(=O)c3ccc(O)cc3)C12C (centres undefined) | > 100 µM (inactive) | > 100 µM (inactive) | > 100 µM (inactive) | > 100 µM (inactive) | > 100 µM (inactive) | > 100 µM (inactive) | > 100 µM (inactive) | > 100 µM (inactive) | 27 µM (inactive) | > 100 µM (inactive) | > 100 µM (inactive) | > 100 µM (inactive) | > 100 µM (inactive) | > 100 µM (inactive) | > 100 µM (inactive) | > 100 µM (inactive) | > 100 µM (inactive)
CC(=O)Nc1nc(C)c(S(=O)(=O)NC(=O)NC2NC(=O)NC2=O)s1 (centres undefined) | > 100 µM (inactive) | > 100 µM (inactive) | > 100 µM (inactive) | > 100 µM (inactive) | > 100 µM (inactive) | > 100 µM (inactive) | > 100 µM (inactive) | > 100 µM (inactive) | > 100 µM (inactive) | > 100 µM (inactive) | > 100 µM (inactive) | > 100 µM (inactive) | > 100 µM (inactive) | > 100 µM (inactive) | > 100 µM (inactive) | > 100 µM (inactive) | > 100 µM (inactive)
Nc1ccc2nc3n(c(=O)c2c1)CCCCC3 | > 100 µM (inactive) | > 100 µM (inactive) | > 100 µM (inactive) | > 100 µM (inactive) | > 100 µM (inactive) | > 100 µM (inactive) | > 100 µM (inactive) | > 100 µM (inactive) | > 100 µM (inactive) | > 100 µM (inactive) | > 100 µM (inactive) | > 100 µM (inactive) | > 100 µM (inactive) | > 100 µM (inactive) |  | > 100 µM (inactive) | > 100 µM (inactive)

Source: ChEMBL document CHEMBL1201862, “PubChem BioAssay data set” (2004)
